Assay results reported in patent US4513009A, “Aminoacid derivatives and their therapeutic applications” (priority 1980, dated 1985).
Like-named read-outs stand apart in the source and are kept apart here.

Columns and labels:
[1] = molecular target: enkephalinase (enkephalin dipeptidylcarboxypeptidase); test: Determination of enkephalinasic (enkephalin dipeptidylcarboxypeptidasic) activity and effect of inhibitors, striatal membrane fraction, 3H-leucine-enkephalin; format: biochemical, rats or mice; settings: 10 nM leucine-enkephalin 3H, 25° C., pH 7.4, 15 mn, read-out: 50% inhibitory concentration
Procedure: Determination of the "enkephalinasic" (enkephalin dipeptidylcarboxypeptidasic) activity and determination of the effect of inhibitors.
The enzyme preparation used is a membrane fraction from the striatum of rats or mice.
This fraction is obtained by homogenization at 4° C. in 20 volumes Tris-HCl buffer 0.05M (pH 7.4) followed by two successive centrifugations (1000 g×min. and 200,000 g×min.) at the end of which the sediment of the second centrifugation is retained. It is washed by re-suspension in 10 ml of the buffer followed by centrifugation (200,000 g×min) and the resulting sediment is in turn washed superficially to complete the removal of the soluble enzymes. The resulting membrane fraction is taken up into the buffer at 4° C., to obtain a suspension comprising about 1.5 mg proteins per ml.
An aliquot sample (50 μl) of the membrane suspension is then incubated in a final volume of 100 μl at 25° C. in the presence of 10 nM leucine-enkephalin ^3 H (39 Ci/mmole), previously purified by column chromatography over Porapak Q (100-120 mesh, Waters Assoc.) and […] puromycine, an aminopeptidase inhibitor. Incubation time is generally set at 15 mn. in order to determine the initial rate of the formation of tripeptide Tyr-Gly-Gly-^3 H characteristic of the enkephalin dipeptidylcarboxypeptidasic (enkephalinasic) activity.
Determination of the radioactivity of the tripeptide is effected by liquid scintillation spectrometry. […]

[2] = tested on: licking reflex of mice on a plate heated at 55° C.; test: Hot-plate test (55° C.): potentiation of the antalgic effect of D Ala2 Met Enkephalin and Naloxone antagonism; format: in vivo; settings: for % Increase of the licking time with respect to the animals treated with D Ala2 Met Enkephalin (1): dosage 10 α/mouse; for Potentiation of the effect of a subactive dosage of D Ala2 Met Enkephalin: 0.3γ D Ala2 Met Enkephalin
Procedure: (§1) Licking reflex of mice on a plate heated at 55° C. according to the method of Jacob. and co-workers (Arch. Int. Pharmacodyn. 122, 287-300, 1959: 133, 296-300, 1961).
(a) Potentiation of the antalgic effect of D Ala2 Met Enkephalin
(α) By the intraventricular route (ivt)
(β) By the intravenous route

[3] = tested on: Tail of the mice; settings: for potentiation of D Ala2 Met Enkephalin: compound i.v. 100 mg/kg, D Ala2 Met Enkephalin 15 minutes later, ivt, 10 to 30γ/mouse; for specific antalgic effect (tail withdrawal): i.v. 100 mg/kg
[4] = tested on: blood-pressure; test: Hypotensive activity; format: in vivo, dogs; settings: Canis lupus familiaris; intravenous administration; read-out: lowest dosage producing a decrease of the blood-pressure
Excerpt: enkephalin-potentiating activity, (LAUBIE M., SCHMITT H., VINCENT M., REMON D. Central cardiovascular effects of Morphinometric peptids in dogs. European Journal of Pharmacology, Vol. 46, 67-71, 1977).

[5] = tested on: licking reflex of mice on a plate heated at 55° C.; test: Hot-plate test (55° C.): specific antalgic effect; format: in vivo; settings: intravenous; for ED50: Mus musculus, hot plate 55° C.
Procedure: as §1
(b) Specific antalgic effect

[6] = tested on: phenylbenzoquinone-induced pain; test: Phenylbenzoquinone or writhing test; format: in vivo; settings: 0.7 mg/kg i.v.; vs controls p<0.01
Excerpt: 3--Phenylbenzoquinone or "writhing test" according to the method of SIEGMUND and co-workers (Proc. Soc. Expert. Biol. Med. 1957, 95, 729-731).

[7] = ivt, + D Ala2 Met Enkephalin 0.3 α/mouse

`CC(C)C[C@H](NC(=O)[C@@H](Cc1ccccc1)NCC(=O)O)C(=O)O` [Compound 5, N-(carboxy-methyl)-D.phenylalanine-L.leucine] was tested, and the IC50 [1] was 20000 nM.

For `O=C(CNC(=O)C(CS)Cc1ccccc1)OCc1ccccc1` (stereo not shown) [Compound 57, N-[3-Mercapto-2-benzyl-propanoyl]glycine benzyl ester], the IC50 [1] was 7.8 nM.

With `COC(=O)[C@H](CC(C)C)NC(=O)[C@H](Cc1ccccc1)SC(C)=O` [Compound 29, N-[(S)-2-acetylthio-3-phenyl-propionyl]-L.leucine methyl ester] the “% Increase of the licking time with respect to the animals treated with D Ala2 Met Enkephalin (1)” value (“% Increase of the licking time” below) [2, 7] was 207% and the “Potentiation of the effect of a subactive dosage of D Ala2 Met Enkephalin” value ([2]; ivt) was “significantly potentiated (p≤0.05)”.

For `CC(C)C[C@H](NC(=O)C(CS)Cc1ccccc1)C(=O)O` (stereo partly drawn) [Compound 18, N[(R,S)3-mercapto-2-benzyl-propionyl]-L.leucine], the “Increase reaction time (%)” value ([3]; 100 mg/kg i.v. + D Ala2 Met Enkephalin (30 γ ivt), 20 mn) was 0%, the “Increase reaction time (%)” value ([3]; 100 mg/kg i.v. + D Ala2 Met Enkephalin (30 γ ivt), 45 mn) was 280% and the “Increase reaction time (%)” value ([3]; 100 mg/kg i.v. + D Ala2 Met Enkephalin (30 γ ivt), 60 mn) was 166%. The “Increase reaction time (%)” value ([3]; 100 mg/kg i.v. + D Ala2 Met Enkephalin (30 γ ivt), 90 mn) was 87%, the “Increase reaction time (%)” value ([3]; 100 mg/kg i.v. + D Ala2 Met Enkephalin (30 γ ivt), 120 mn) was 174% and the “Increase reaction time (%)” value ([3]; 100 mg/kg i.v. alone, 20 mn) was 38%. For the same compound, the “Increase reaction time (%)” value ([3]; 100 mg/kg i.v. alone, 45 mn) was 80%, the “Increase reaction time (%)” value ([3]; 100 mg/kg i.v. alone, 60 mn) was 120% and the “Increase reaction time (%)” value ([3]; 100 mg/kg i.v. alone, 90 mn) was 61%. For the same compound, the “Increase reaction time (%)” value ([3]; 100 mg/kg i.v. alone, 120 mn) was 90%, the “potentiation of D Ala2 Met Enkephalin” value [3] was “potentiate most significantly” and the “specific antalgic effect (tail withdrawal)” value [3] was “exhibit a specific antalgic affect”. For the same compound, the minimal effective dose [4] was 0.3 mg/kg.

`CC(=O)SCS[C@@H](Cc1ccccc1)C(=O)N[C@@H](CC(C)C)C(=O)O` [Compound 33, N-[(S)-2-acetylthiomethylthio-3-phenyl-propionyl]-L.leucine] showed an IC50 [1] of 1000 nM.

`COC(=O)CNC(=O)C(CSC(C)=O)Cc1ccccc1` (racemic) [Compound 19, N-[(RS)-3-acetylthio-2-benzyl-propionyl]glycine methyl ester] was tested, and the ED50 [5] was 30 mg/kg and the “antalgic effect in the hot (55° C.) plate test” value [5] was “have an antalgic effect”.

`CC(=O)SCC(Cc1ccccc1)C(=O)NCC(=O)NCc1ccccc1` (stereo not shown) [Compound 56, N-[3-Acetylthio-2-benzylpropanoyl]glycine benzylamide] showed an IC50 [1] of 400 nM.

“D Ala2 Met Enkephalin [reference compound]” was tested, and the “activity of D Ala2 Met Enkephalin per se” value ([2]; 0.3 α/mouse, ivt) was “inactive per se”.

`O=C(CNC(=O)C(CS)Cc1ccccc1)NCc1ccccc1` (stereo not shown) [Compound 60, N-[3-Mercapto-2-benzyl-propanoyl]glycine benzylamide] showed an IC50 [1] of 30 nM.

In the case of `CC(C)C[C@H](NC(=O)[C@H](Cc1ccccc1)NCC(=O)O)C(=O)O` [Compound 2, N-(carboxy-methyl)L.phenylalanine-L.leucine], the “% Increase of the licking time” value [2, 7] is reported as 274%, the “Potentiation of the effect of a subactive dosage of D Ala2 Met Enkephalin” value ([2]; ivt) is reported as “significantly potentiated (p≤0.05)” and the IC50 [1] is reported as 1500 nM.

`C[C@H](NC(=O)[C@@H](S)Cc1ccccc1)C(=O)O` [Compound 32, N-[(S)-2-mercapto-3-phenyl-propionyl]-L.alanine] gave an IC50 [1] of 100 nM.

With `CC(C)C[C@H](NC(=O)[C@H](Cc1ccccc1)SCCS)C(=O)O` [Compound 35, N-[(S)-2-mercapto-ethylthio-3-phenyl-propionyl]-L.leucine] the “increase of the licking time with respect to the animals treated with D Ala2 Met Enkephalin” value ([2]; compound i.v. 100 mg/kg, D Ala2 Met Enkephalin 0.3γ intraventricular) was 100%, the “% Increase of the licking time” value [2, 7] was 240% and the “% Increase of the licking time” value ([2]; ivt, + D Ala2 Met Enkephalin 0.3 α/mouse + Naloxone 10 mg/kg s.c.) was 18%. The “Potentiation of the effect of a subactive dosage of D Ala2 Met Enkephalin” value ([2]; ivt) was “significantly potentiated (p≤0.05)” and the IC50 [1] was 400 nM.

For `CC(C)C[C@H](NC(=O)[C@@H](S)Cc1ccccc1)C(=O)O` [Compound 28, N-[(S)-2-mercapto-3-phenyl-propionyl]-L.leucine], the “% Increase of the licking time” value [2, 7] was 400% and the “Potentiation of the effect of a subactive dosage of D Ala2 Met Enkephalin” value ([2]; ivt) was “significantly potentiated (p≤0.05)”.

`O=C(O)CNC(=O)C(CS)Cc1ccccc1` (racemic) [Compound 20, N-[(R,S)-3-mercapto-2-benzyl-propionyl]glycine] was tested, and the “Increase reaction time (%)” value ([3]; 30 mg/kg i.v. + D Ala2 Met Enkephalin (15 γ ivt), 20 mn) was 247%, the “Increase reaction time (%)” value ([3]; 30 mg/kg i.v. + D Ala2 Met Enkephalin (15 γ ivt), 45 mn) was 353% and the “Increase reaction time (%)” value ([3]; 30 mg/kg i.v. + D Ala2 Met Enkephalin (15 γ ivt), 60 mn) was 283%. For the same compound, the “Increase reaction time (%)” value ([3]; 30 mg/kg i.v. + D Ala2 Met Enkephalin (15 γ ivt), 90 mn) was 210%, the “Increase reaction time (%)” value ([3]; 30 mg/kg i.v. + D Ala2 Met Enkephalin (15 γ ivt), 120 mn) was 203% and the “Increase reaction time (%)” value ([3]; 100 mg/kg i.v. + D Ala2 Met Enkephalin (15 γ ivt), 20 mn) was 239%. The “Increase reaction time (%)” value ([3]; 100 mg/kg i.v. + D Ala2 Met Enkephalin (15 γ ivt), 45 mn) was 528%, the “Increase reaction time (%)” value ([3]; 100 mg/kg i.v. + D Ala2 Met Enkephalin (15 γ ivt), 60 mn) was 321% and the “Increase reaction time (%)” value ([3]; 100 mg/kg i.v. + D Ala2 Met Enkephalin (15 γ ivt), 90 mn) was 382%. The “Increase reaction time (%)” value ([3]; 100 mg/kg i.v. + D Ala2 Met Enkephalin (15 γ ivt), 120 mn) was 322%, the “Increase reaction time (%)” value ([3]; 100 mg/kg i.v. alone, 20 mn) was 59% and the “Increase reaction time (%)” value ([3]; 100 mg/kg i.v. alone, 45 mn) was 196%. For the same compound, the “Increase reaction time (%)” value ([3]; 100 mg/kg i.v. alone, 60 mn) was 150%, the “Increase reaction time (%)” value ([3]; 100 mg/kg i.v. alone, 90 mn) was 88% and the “Increase reaction time (%)” value ([3]; 100 mg/kg i.v. alone, 120 mn) was 85%. The “potentiation of D Ala2 Met Enkephalin” value [3] was “potentiate most significantly”, the “specific antalgic effect (tail withdrawal)” value [3] was “exhibit a specific antalgic affect” and the IC50 [1] was 5 nM.

With `C=CCN1CC[C@]23c4c5ccc(O)c4O[C@H]2C(=O)CC[C@@]3(O)[C@H]1C5` [Naloxone, reference compound] the “antagonism of the potentiated antalgic effect by Naloxone” value ([2]; ivt, compounds + D Ala2 Met Enkephalin) was “this effect is antagonized by Naloxone”.

`CC(C)C[C@H](NC(=O)[C@H](Cc1ccccc1)SC(=O)c1ccccc1)C(=O)O` [Compound 27, N-[(S)-2-benzoylthio-3-phenyl-propionyl]-L.leucine] was tested, and the IC50 [1] was 5000 nM.

In the case of `CC(=O)SCC(Cc1ccccc1)C(=O)NCC(=O)OCc1ccc(F)cc1` (stereo not shown) [Compound 54, N-[3-Acetylthio-2-benzylpropanoyl]glycine(p.fluoro)-benzylester], the “protection from phenylbenzoquinone-induced pain” value [6] is reported as “protect the treated animals from phenylbenzoquinone-induced pain, with a significant difference with respect to the controls, p<0.01”, the IC50 [1] is reported as 260 nM and the ED50 [5] is reported as 3 mg/kg. The “antalgic effect in the hot (55° C.) plate test” value [5] was “have an antalgic effect”.

`O=C(N[C@@H](COCc1ccccc1)C(=O)O)C(CS)Cc1ccccc1` (stereo partly drawn) [Compound 24, O-Benzyl-N-[(R,S)-3-mercapto-2-benzyl-propionyl]L.serine] was tested, and the IC50 [1] was 4 nM and the minimal effective dose [4] was 0.3 mg/kg.

For `CC(=O)SCC(Cc1ccccc1)C(=O)NCC(=O)OCC(F)(F)F` (stereo not shown) [Compound 55, N-[3-Acetylthio-2-benzylpropanoyl]-glycine-2,2,2-trifluoroethyl ester], the IC50 [1] was 350 nM.
